Measurements published in patent US20250318525A1, “COMPOSITIONS TO CONTROL THE RELEASE RATES OF CHEMICAL PESTICIDES” (priority 2020, published 2025).
≈ marks a conversion by molar mass, not a printed value. Where two headings read alike, the source gives them in different places.

Tests used:
[1] = 2,4D release from tablets containing preformed 2,4D complexes (Examples 8, 10, 11); assay type: physicochemical; conditions: 20% 2,4D tablets in silt, 1 L deionized water, 20° C., 60 rpm, FIGS. 16, 18, 19
Experimental: The resulting solids were filtered and resuspended in deionized water with stirring for 15 min., then filtered again. The solids were dried to constant mass in a food dehydrator 120° F.
The resulting tablets were immersed in 1 L of deionized water at 20° C. and stirred at 60 rpm for the designated time period.

[2] = TFM release when paired with bases of increasing solubility; assay type: physicochemical
Excerpt: If a weak base is paired with the TFM, the solubilization of TFM can be controlled by the basicity and/or the solubility of the weak base.

[3] = Release from dual active tablets, copper-endothall salt and Mg(2,4D)2 or Ca(2,4D)2 (Example 18); assay type: physicochemical; conditions: tablets with Mg(2,4D)2 or Ca(2,4D)2, 1 L stirred deionized water, both formulations, FIG. 27
Experimental: Formulations were mixed using a blender and then pressed into 6 mm tablets (average weight of 0.082 g/tablet) using a desktop tablet press. Exact Formulations: • A. 0.5 g Endothall (Cu), 0.5 g 2,4D (Ca), 0.5 g silt • B. 0.5 g Endothall (Cu), 0.5 g 2,4D (Mg), 0.5 g silt
(§1) The resulting tablets were immersed in 1 L of stirred deionized water (60 rpm). […] The copper endothall salt portion of the formulation releases rapidly within 24 hours for both formulations.

[4] = Release from dual active tablets, copper-endothall salt and Mg(triclopyr)2 or Ca(triclopyr)2 (Example 19); assay type: physicochemical; conditions: tablets with Mg(triclopyr)2 or Ca(triclopyr)2, 1 L stirred deionized water, both formulations, FIG. 28
Experimental: Formulations were prepared with 33 weight percent each of copper-endothall salt, Mg(triclopyr)2 or Ca(triclopyr)2 salt, and silt. Formulations were mixed using a blender and then pressed into 6 mm tablets (average weight of 0.082 g/tablet) using a desktop tablet press.
• A. 0.5 g Endothall (Cu), 0.5 g triclopyr (Ca), 0.5 g silt • B. 0.5 g Endothall (Cu), 0.5 g triclopyr (Mg), 0.5 g silt
as §1

[5] = physchem; conditions: water
[6] = Terrestrial sand bed with 2,4D salts and modeled rain events (Example 24); assay type: physicochemical; conditions: 7×200 mL flushes of deionized water, FIG. 33
Experimental: 200 mL of sand was layered in a Buchner funnel with filter paper. 2,4D salts were blended with 5.0 g of sand, and layered atop the 200 mL sand bed and exposed to 7×200 mL flushes of deionized water. 2,4D concentration was measured in the flush water to study how the associated metal impacted how rapidly 2,4D was lost from the surface.
In a terrestrial application, 2,4D lost from the surface would no longer be available to treat the target plant.

[7] = as listed in FIG. 36
[8] = Benzoic acid release from benzoic acid salt tablets (Example 21); assay type: physicochemical; conditions: 1 L stirred deionized water, room temperature, FIG. 30
Experimental: Benzoic acid (BA) is a structural analogue to dicamba with its carboxylic acid in the benzyl position. BA salts were prepared by mixing a stoichiometric amount of metal hydroxide with benzoic acid in deionized water for a minimum of 12 hours. The resulting solids were filtered out of solution and dried in a dehydrator for 12 hours at 120° F. These were then blended with silt in a mortar and pestle and pressed on a desktop tablet press into 6 mm tablets (average tablet weight 0.093 g).
• A. 0.1 g BA, 0.4 g silt • B. 0.1 g Mg(BA)2, 0.4 g silt • C. 0.1 g Ca(BA)2, 0.4 g silt • D. 0.1 g Cu(BA)2, 0.4 g silt • E. 0.1 g Na benzoate, 0.4 g silt
These tablets were immersed in 1 L, stirred (60 rpm), room temperature, deionized water with two tablets per jar. […] A trend can be expected, but not predicted. Based on this, a trend could also be expected when dicamba is paired with metal ions.

SMILES: O=C(O)COc1ccc(Cl)cc1Cl [Ca(2,4D)2]
- 2,4D release rate, comparison ([1]; listed as premade calcium complex): not significantly slower

SMILES: O=[N+]([O-])c1ccc(O)cc1C(F)(F)F [TFM, 3-trifluoromethyl-4-nitrophenol]
- TFM release rate, order by paired base [2]: Mg(OH)2<Ca(OH)2<<<KOH

SMILES: O=C([O-])C1C2CCC(O2)C1C(=O)[O-].[Cu+2] (stereo not drawn) [copper endothall salt]
- time for release of endothall portion [3]: ≤ 24 h
- time for release of endothall portion [4]: ≤ 24 h

SMILES: O=C(O)COc1ccc(Cl)cc1Cl [2,4D, 2,4-dichlorophenoxyacetic acid, reference compound]
- 2,4D release rate, comparison [1]: releases significantly faster than the Ca(2,4D)2
- solubility [5]: 740 µg/mL (≈ 3.35 mM)

SMILES: O=C([O-])COc1ccc(Cl)cc1Cl.O=C([O-])COc1ccc(Cl)cc1Cl.[Cu+2] [Cu(2,4D)2]
- 2,4D release rate, comparison [1]: the slowest of all
- tolerance of 2,4D salt on sand bed to water flushes [6]: most tolerant to frequent exposure to rain or watering events

SMILES: O=C([O-])COc1ccc(Cl)cc1Cl.O=C([O-])COc1ccc(Cl)cc1Cl.[Fe+2] [Fe(2,4D)2]
- solubility [7]: 1860 µg/mL
- 2,4D release rate, comparison [1]: releases more slowly than 2,4D

SMILES: O=C([O-])c1ccccc1.O=C([O-])c1ccccc1.[Ca+2] [Ca(BA)2]
- benzoic acid release rate, comparison [8]: releases significantly faster than BA

SMILES: O=C([O-])COc1ccc(Cl)cc1Cl.[Na+] [Na(2,4D)]
- 2,4D release rate, comparison [1]: releases the fastest
